Data on four compounds can be found in patent publication US9616058B2, “Potent selective LSD1 inhibitors and dual LSD1/MAO-B inhibitors for antiviral use” (Oryzon Genomics, S.A., priority 2010, dated 2017).

Common to all, as to assay type: biochemical
Test [1] concerns the target T1, Human recombinant LSD1 protein (Homo sapiens, UniProt O60341).
T1 construct: purchased BPS Bioscience Inc
The test can be described thus: LSD1 demethylase inhibition assay (Amplex Red peroxide/peroxidase-coupled). Conditions: Ki (IC50) estimated at half of the maximum activity. The source says:
The compounds of the invention can be tested for their ability to inhibit LSD1.
The conversion of the Amplex®.

Test [2] addresses T2, Human recombinant monoamine oxidase MAO-B (Homo sapiens, UniProt P27338).
T2 construct: purchased Sigma Aldrich
T2 sequence (P27338 1-520): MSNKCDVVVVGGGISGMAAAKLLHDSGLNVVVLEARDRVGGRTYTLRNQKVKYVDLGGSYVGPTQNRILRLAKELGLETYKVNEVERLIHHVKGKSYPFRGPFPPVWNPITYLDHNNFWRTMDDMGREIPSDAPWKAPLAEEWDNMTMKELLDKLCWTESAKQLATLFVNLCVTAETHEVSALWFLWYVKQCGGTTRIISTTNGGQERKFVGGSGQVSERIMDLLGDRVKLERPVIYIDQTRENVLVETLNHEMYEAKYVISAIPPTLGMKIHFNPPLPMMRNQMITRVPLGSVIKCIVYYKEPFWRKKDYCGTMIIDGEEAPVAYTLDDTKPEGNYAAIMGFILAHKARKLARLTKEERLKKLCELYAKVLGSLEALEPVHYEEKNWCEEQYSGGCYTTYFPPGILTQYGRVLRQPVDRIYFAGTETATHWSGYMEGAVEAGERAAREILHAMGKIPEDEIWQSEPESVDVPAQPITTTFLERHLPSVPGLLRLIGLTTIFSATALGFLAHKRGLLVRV
The test can be described thus: Monoamine oxidase assay (kynuramine fluorescence), MAO-B. Conditions: Ki measured at Vmax/2. As to the method:
(§1) MOAs catalyze the oxidative deamination of 1°, 2′ and 3° amines.
(§2) The Ki of each inhibitor was measure at Vmax/2.

The target of test [3] is T3, Human recombinant monoamine oxidase MAO-A (Homo sapiens, UniProt P21397).
T3 construct: purchased Sigma Aldrich
T3 sequence (P21397 1-527): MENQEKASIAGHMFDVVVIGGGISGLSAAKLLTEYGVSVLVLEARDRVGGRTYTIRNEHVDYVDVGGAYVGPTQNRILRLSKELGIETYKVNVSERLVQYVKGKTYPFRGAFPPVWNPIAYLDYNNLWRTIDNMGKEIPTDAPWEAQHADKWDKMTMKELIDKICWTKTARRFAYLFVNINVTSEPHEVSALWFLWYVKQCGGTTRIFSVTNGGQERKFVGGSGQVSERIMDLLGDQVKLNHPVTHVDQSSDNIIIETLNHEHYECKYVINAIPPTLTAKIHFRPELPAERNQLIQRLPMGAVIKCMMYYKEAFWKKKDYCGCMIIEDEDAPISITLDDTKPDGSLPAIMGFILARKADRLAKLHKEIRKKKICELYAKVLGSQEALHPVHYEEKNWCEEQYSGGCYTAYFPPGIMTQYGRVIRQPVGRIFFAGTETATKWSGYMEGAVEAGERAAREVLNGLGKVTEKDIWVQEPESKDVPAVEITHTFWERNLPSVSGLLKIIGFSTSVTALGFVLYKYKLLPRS
Kind of test: Monoamine oxidase assay (kynuramine fluorescence), MAO-A. Conditions: Ki measured at Vmax/2. As to the method: as §1, §2

pKi: −log10 of the molar value.

What is called pKi is the negative decadic logarithm of the Ki, by convention in mol/L. Consider `N[C@@H]1CCN(CCN[C@H]2CC2c2ccccc2)C1` (some centres unmarked) [1(A)], for which the results for the pKi in test [1], in test [2] and in test [3] were above 6.00, below 4.40 and below 4.40, respectively.
`c1ccc(C2C[C@@H]2NCCN2CCNCC2)cc1` (some centres unmarked) [1(B)]: the figures for the pKi in test [1], in test [2] and in test [3] were above 6.00, below 4.52 and below 4.52, respectively.
On to `c1ccc(C2C[C@@H]2NCCNC2CC2)cc1` (some centres unmarked) [Compound 2(A)], for which the pKi in test [3] is around 5.00.
The same measure, in the same setting: in the case of `NC(=O)CN[C@H]1CC1c1ccc(OCc2cc(F)cc(F)c2)cc1` (some centres unmarked) [2(B)] it was 4.52 to 4.70.
